Source: a melting point compilation (Tetko et al.; mined from patent text by program, amines drawn as free bases though some values may be those of a salt)

SMILES	melting point [°C]
CCc1cccc2c(/C=C(\C)C(=O)O)cc(OC)c(OC(C)=O)c12	148 to 150
CCn1nc(OCCCc2ccc(OCCOC(C)C)cc2Oc2ncc(C(F)(F)F)cc2Cl)cc1CCC(=O)O	130 to 132
CC(C)(C)c1cc(C(=O)OCCN(CCO)C(=O)c2cc(C(C)(C)C)c(O)c(C(C)(C)C)c2)cc(C(C)(C)C)c1O	174 to 178
CC(C)C[C@H](NC(=O)[C@H](Cc1c[nH]cn1)NC(=O)[C@H](Cc1ccccc1)NC(=O)OCc1ccccc1)[C@H](O)CO	159 to 162
O=C1CCN=C(c2ccccc2Cl)c2ccccc21	135 to 137
CC(C)(C(=O)O)C1(c2ccc(Cl)cc2)CCC1	95 to 110
COC(=O)C1CC(c2ccc(OC)c(OC)c2)=NO1 (stereo not given)	106 to 108
O=[N+]([O-])Nc1ccnc(Cl)c1	163 to 164
CC(C)(C)c1ccc(-n2cnnc2C(F)(F)F)cc1	134
COc1cccc(Cn2cnc3c(Br)c(NC4=NCCN4)ccc32)c1	177 to 178
CC(C)C[C@H](NC(=O)N1CCCCCC1)C(=O)O	88 to 89
COC(=O)c1ccccc1-c1ccc(CBr)cc1	51 to 53
CCCCOc1c(OC)cc(C(=O)O)cc1[N+](=O)[O-]	114 to 115
O=[N+]([O-])c1cccc(S(=O)(=O)N(CCO)CCO)c1	100 to 102
CCOC(=O)C1=C(C)Nc2ccnc(OC(C)C)c2C1c1cccc(C(F)(F)F)c1Cl (stereo not given)	173 to 175
CC(C)(NCc1ccc(Oc2ccc3c(c2)OCO3)cc1)C(N)=O	123 to 124
O=C1CN(c2ccc(Cl)cc2)C(=S)N1c1ccc(Cc2ccccc2)cc1	153
CCOC(=O)C(=O)c1cc(OC)c(OCOC)c2c(Cc3ccccc3)cccc12	70 to 72
CC(C)c1ccnc(C(=O)c2[nH]c3ccc(Cl)cc3c2CC(=O)O)c1	227 to 228
O=C(CCCCSc1nc(-c2ccccc2)c(-c2ccccc2)[nH]1)NCCOCCO	176 to 178
S=c1[nH]c2c(n1-c1ccccn1)CCCC2	203 to 204
COC(=O)c1ccc2ncc(C(=S)NCc3ccc(Cl)cc3)c(O)c2c1	259 to 261
O=C(NCCN1CCCC1)c1ccc(=O)n(Cc2ccc(-c3ccccc3)cc2)c1	142 to 152
O=C(Nc1cccc(-c2c(-c3ccccc3C(F)(F)F)cnc3c(C(F)(F)F)cccc23)c1)Nc1ccccc1Cl	230 to 232
CCOC(=O)c1cn2c3c(c(F)c(F)cc3c1=O)OCC2CO (stereo not given)	268 to 270
O=C1NCc2c1ccc(Nc1ccccc1)c2Nc1ccccc1	225
CC(=O)C1CCC2C3CCC4CC(O)C(N5CCOC(C)(C)C5)CC4(C)C3C(O)CC12C (stereo not given)	182 to 185
COc1cc(OC(C)C)cc2oc(Sc3ccc(O)cc3)cc(=O)c12	263 to 265
CCCCN(C)c1nccc2ccc(C(=O)N[C@@H](Cc3cc(F)cc(F)c3)[C@H](O)CNCc3cccc(CC)c3)cc12	120 to 121
O=C1C(c2ccc(-c3ccccc3)cc2)n2cncc2CN1Cc1ccc(F)cc1 (stereo not given)	189 to 190

Other lines, results leading:

melting point [°C]	SMILES
283 to 285	COc1nc2cc(Cl)c(Cl)cc2nc1NS(=O)(=O)c1cccc(Cl)c1Cl
149	CCCCc1nc(C(C)O)c(C(=O)OCC)[nH]1 (stereo not given)
284 to 290	O=C1C2=C(NC3(C=N2)SCCS3)c2ccccc21
208 to 210	CNC(=O)c1cnc2cccc(C)n2c1=O
220	N#Cc1ccc(CCC(N)=O)cc1
163	C=CCOc1cc(C(=O)O)cc(S(C)(=O)=O)c1OCC=C
131 to 134	CC(C)(O)C(=O)c1ccc(OCC(=O)O)cc1
192 to 194	CC[C@@H](C(C)C)[C@H](O)[C@H](O)[C@@H](C)[C@H]1CC[C@H]2[C@@H]3CCC4=CC(=O)CC[C@]4(C)[C@H]3CC[C@]12C
164	CN(C)CC(=O)Nc1cccc2nc(NC3CCc4cc(F)ccc43)ccc12 (racemic)
217	O=C(O)c1cn(C2CC2)c2c(F)c(N3CCCC(n4cncn4)C3)c(F)cc2c1=O (stereo not given)
140 to 142	CCCCCCCCC1C=CC(C(=O)c2ccc(C(=O)O)o2)=C2N=C3CCCCC3=C21 (stereo not given)
143 to 145	O=C(O)COc1cc(F)ccc1C(=O)NCc1ccc(Br)cc1F
55 to 57	CC#CCOc1ccc(S(=O)(=O)N(C)C(C(=O)NO)C(C)(C)SCCN2CCCC2)cc1 (stereo not given)
119 to 120	COC(=O)c1c(-c2ccccc2)n[nH]c1C
139 to 140	CCOC(=O)C1(C)ON=C(C2(C)CC(c3ccc(OC)c(OC4CCCC4)c3)=NO2)O1 (stereo not given)
111 to 112	Cc1ccc(COc2ncc(F)c(N)n2)cc1
189 to 192	CC(=O)Cn1c(Oc2ccc(-n3c4ncccc4n4ccnc34)cc2)nc2ccccc21
200 to 201	CC(C(O)c1ccc2c(c1)CCCS2)N1CCC(NC(=O)c2ccccc2)CC1 (stereo not given)
144	CC(C)CNC(=S)Nc1cc(Cl)cc(Cl)c1
234 to 237	NS(=O)(=O)c1cc2cc3c(cc2[nH]1)OCO3

melting point [°C]	SMILES
127 to 128	O=c1cc(-c2ccc(Cl)cc2)oc2ccc(OCCCCCCN3CCC(O)CC3)cc12
146 to 147	Cc1nc(N2CCN(CC3CC3)C2=O)sc1C(=O)NCc1ccc(F)cc1
76 to 77	O=C(O)CCCc1ccc(-c2ccc(F)cc2F)cc1
108 to 109	CC(C)(C)OC(=O)N[C@@H](COS(C)(=O)=O)c1ccccc1
147 to 150	CCCCc1nc2c(N)nc3ccc(OCCC4CCN(C(=O)C5CCCC5)CC4)cc3c2n1C
115	O=C(O)c1ccc(CNC(=O)C2Cc3ccccc3N2S(=O)(=O)c2ccc(-c3ccc(F)cc3F)cc2)cc1 (stereo not given)
116 to 119	CCCCOC(=O)C(C#N)=C1Nc2ccccc2O1
82	CCCCCCC1C(=O)NC(C(=O)SCCNC(C)=O)(C(O)C2C=CCCC2)C1(C)O (stereo not given)
172 to 174	C#Cc1cn(C2OC(CO)C(O)C2=C)c(=O)[nH]c1=O (stereo not given)
147 to 149	CC(=O)O[C@H]1c2cc(F)ccc2Cc2ccccc2[C@H]1C[C@@H]1COC(C)(C)O1
80 to 83	CSCCCn1nc(-c2cccc(C(F)(F)F)c2F)c(=O)c2ccccc21
114 to 115	CCOC(=O)c1cn(-c2ncc(Cl)cc2Cl)cn1
155 to 157	CCC(CC)c1ccc(Cl)c2nc(Oc3c(C)cc(Cl)cc3Cl)n(C)c12
212	O=P(O)(O)OP(=O)(O)O
236	COc1ccccc1[C@@]1(O)[C@H](O)CC(c2ccccc2)(c2ccccc2)[C@@H]2CN(C(=O)Cc3ccccc3N3CCCC3)C[C@@H]21 (racemic)
117 to 119	CCCCCC(=O)NS(=O)(=O)/C=C/c1cc(OCCCC)nn1Cc1ccc(Cl)cc1Cl
239 to 242	COc1ccc(C(=O)Nc2ccc(C(=O)N3CCCC3)cc2)cc1C12CC3CC(CC(C3)C1)C2
154	COc1ccc(C(=O)c2cc(-c3ccc(S(C)(=O)=O)cc3)c(N3CCOCC3)s2)cc1
293 to 296	Oc1ccc(-c2nc3ccc(O)cc3o2)c(O)c1
138 to 139	CC[C@H](N)C(=O)N1c2ccccc2C[C@H]1C(=O)NC
